Values joined by “and” are separate entries in the source; they are usually repeats but may differ in a detail not shown here. Equal entries are not always repeated. “Also recorded” adds a separate entry of the source. Where two headings read alike, the source gives them in different places. One block for each compound: values may come before it.
Columns and labels:
[1] = tested on: SW620 human cancer cells (G12V kRAS); experiment: Cytotoxicity assay (CellTiter-Glo 2.0, 72 hours); assay type: cell-based
Experimental: FIG. 1, Cytotoxicity of exemplary compound (Structure 1) on SW620 human cancer cells. The cytotoxicity of compounds of interest are tested against the human colon cancer cell line SW620 as described in the experimental section. SW620 cells express a mutant G12V kRAS. Compounds are incubated with cells for 72 hours and the assay developed using Cell Titer Glo 2.0. IC50 values are determined using GraphPad Prism4.
Structure 1 was assayed for inhibition of cell proliferation and killing cancer cells. Cytotoxicity assays were conducted according to the following general procedure. SW620, SW1990, etc, were all maintained in Leibowitz L15 media supplemented with 10% fetal bovine serum and 1% PenStrep and grown in a 37° C. incubator without supplemental CO2. Cells were plated into 96 well flat bottom plates (2 million/plate, ˜20,000/well, 200 μLmedia/well). The cells were allowed to settle and adhere to plate bottom overnight.
Compounds were diluted in media from a 10 mM stock solution starting at 50 μM, using 2-fold dilutions, in a column in a 96-well plate. Media was removed from the plate containing cells and replaced with media containing diluted compounds. Plates were incubated 72 hours at 37° C. with no supplementary CO2. […] Luminescence was read with a FLx800 (BioTek Instruments). […]

[2] = tested on: phosphorylated AKT; experiment: Phosphorylated AKT western blot in SW1990 cells; assay type: cell-based, human; conditions: 24 hours with compound, EGF 10 ng/mL 15 minutes, FIG. 2
Experimental: (§1) Structure 1 decreased both phosphorylated AKT and phosphorylated ERK. Structure 1 had no effect on AKT or ERK (data not shown).
(§2) A method used to measure ERK and AKT is based on Welsch et al, Cell 168: 878-889 February 2017. SW1990 cells, growth driven by a G12D kRAS mutation and derived from human, pancreatic cancer cells, are plated in a 6-well plate at 1.5×10^6 cells per plate and grown overnight at 37° C. Media is replaced with serum-free media and the plate incubated an additional 24 hours. Media is replaced with media with or without compound and incubated for an additional 24 hours. EGF is added at a concentration of 10 ng/mL. After 15 minutes, cells are washed with ice cold PBS and lysed with RIPA buffer.
(§3) The lysate is processed by electrophoresis using a Mini-PROTEAN® gel mounted in a Mini-PROTEAN® Tetra Cell (cassette). Both the gel and the holding assembly (cassette) are purchased from BIORAD. The gel in the assembly is placed, electrode up, in the buffer tanks. The Tris/glycine/SDS buffer is added to both the inner buffer chamber (200 mL) and the outer buffer chamber (800 mL). […]
(§4) The membrane is placed into TTBS buffer containing SuperBlock T20 (Thermo Scientific) and incubated for 1 hour at room temperature. […] The anti pERK detected both pERK 1 and 2 (T202/Y204). […]

[3] = tested on: non-phosphorylated ERK; experiment: Non-phosphorylated ERK western blot in SW1990 cells; assay type: cell-based, human; conditions: data not shown
Experimental: as §1, §2, §3, §4

[4] = tested on: phosphorylated ERK; experiment: Phosphorylated ERK western blot in SW1990 cells; assay type: cell-based, human; conditions: 24 hours with compound, EGF 10 ng/mL 15 minutes, FIG. 2
Experimental: as §1, §2, §3, §4

[5] = tested on: non-phosphorylated AKT; experiment: Non-phosphorylated AKT western blot in SW1990 cells; assay type: cell-based, human; conditions: data not shown
Experimental: as §1, §2, §3, §4

[6] = tested on: Drosophila melanogaster flies with human G12V kRAS expressed in the wing; experiment: Fly screen: reversal of crinkled wing phenotype; assay type: in vivo
Description: The Tosk approach uses Drosophila melanogaster flies as media for initial screening for RAS modulating compounds. Tosk has created a fruit fly with human kRAS G12V expressed in its wing. The mutant kRAS expressed in the fly wing appears functional, even though it operates in the presence of the other physiological systems present in the fly. The fly phenotype in the mutant fly is a crimped wing which can be reversed to a great extent if the fly is fed food enriched with an effective kRAS inhibitor. The fly kRAS suppressor screen can provide a more predictive model compared to conventional discovery methods because the kRAS is in its natural (i.e., not artificial/isolated/manipulated) environment anchored to the plasma membrane, positioned correctly, and surrounded by appropriate neighboring chemicals. Several reports have emphasized the importance of kRAS positioning and environment to realize protein activity.
2. Fly with Crinkled Wing Phenotype.
1. Production of Fly Food/Test Article Mix. A Biomek 2000 robotic arm is used to pipet 40 μL of a 10 mM DMSO solution of Test Article into a 35 mL polypropylene Drosophila fly vial (VWR 89092-728) containing 10 mL ETOH. A half teaspoon blue fly food (4-24, Carolina Biological Supply), is added and the tubes are vortexed and placed into a HT-4X GeneVac to remove the DMSO and ETOH. The tube is vortexed, 4 ml water added, and vortexed again. Control samples are tubes with fly food prepared with just 40 μL DMSO, no Test Article, or 40 μL of a DMSO solution containing 50 μM of the trametanib positive control. 2. Screen. Several hundred male G12V kRAS flies and several hundred GAL4 females are placed in a custom Plexiglas population cage (12″×12″×8″) made fly condo containing grape agar and yeast paste prepared using a published protocol. Embryos from the container are washed off the grape agar onto a sieve and re-suspended in an aqueous sucrose/salt/triton solution. An aliquot of this solution is analyzed using a dissecting microscope to determine the embryo concentration. The appropriate solution to deliver 150 embryos is then added to the fly food/Test article vials. The vial is capped with a cellulose fly bottle plug. […] The vials are incubated at 23° C. in a temperature-controlled room for 12 days. 3. Analysis. After 12 days, all flies in a vial are observed under a microscope following CO2 anesthesia for the number of phenotype reversals compared to the total number of viable flies. Cell culture testing is typically performed for any Test Article showing evidence of >25% phenotype reversal. The trametinib positive control provides reversal of the crimped/crinkled phenotype for 50-75% of the flies.
A library of over 16,000 distinct chemicals was purchased from ChemDiv, San Diego, Calif. All the compounds were evaluated in the fly screen described above for the ability to reverse the crinkled wing phenotype. […] One of the three compounds was Structure 1.

[7] = target: PDK1 (Homo sapiens, UniProt O15530); experiment: Protein kinase inhibition; assay type: biochemical; conditions: tested at 3 μM
Experimental: (§5) The exemplary compound was also tested at 3 μM for protein kinase inhibition against the following protein kinases: AKT1, AKT2, AKT3, EGF-R, EGF-R (L858R mutation), FRAP1, GSK3B, MAPK1 (ERK2), MAPK3 (ERK1), BRAF, BRAF V599E, MAP2K1 (MEK1), MAP2K2 (MEK2), PDK1, RAF1, PI3K C2A, PI3K C2B, P13K C3, PI3K 3A, PI3K CB, PI3K CD, and PI3K CG. […] The main downstream targets for kRAS are ERK (Samatar et al., Targeting RAS-ERK signaling in cancer: promises and challenges. Nat Rev Drug Discov. 2014; 13:928-42 and Martini et al., Ann Med. 2014; 46:372-83). kRAS activates ERK and AKT leading to phosphorylated ERK and phosphorylated AKT. A compound that suppresses kRAS activity is expected to lower phosphorylated ERK and phosphorylated AKT.

[8] = target: PI3K C2A (Homo sapiens, UniProt O00443); experiment: Protein kinase inhibition; assay type: biochemical; conditions: tested at 3 μM
Experimental: as §5

[9] = target: AKT2 (Homo sapiens, UniProt P31751); experiment: Protein kinase inhibition; assay type: biochemical; conditions: tested at 3 μM
Experimental: as §5

[10] = target: EGF-R (Homo sapiens, UniProt P00533); experiment: Protein kinase inhibition; assay type: biochemical; conditions: tested at 3 μM
Experimental: as §5

[11] = target: BRAF (Homo sapiens, UniProt P15056); experiment: Protein kinase inhibition; assay type: biochemical; conditions: tested at 3 μM
Experimental: as §5

[12] = target: MAPK1 (ERK2) (Homo sapiens, UniProt P28482); experiment: Protein kinase inhibition; assay type: biochemical; conditions: tested at 3 μM
Experimental: as §5

[13] = target: BRAF V599E (Homo sapiens, UniProt P15056, V600E); experiment: Protein kinase inhibition; assay type: biochemical; conditions: tested at 3 μM
Experimental: as §5

[14] = target: RAF1 (Homo sapiens, UniProt P04049); experiment: Protein kinase inhibition; assay type: biochemical; conditions: tested at 3 μM
Experimental: as §5

[15] = target: PI3K 3A (Homo sapiens, UniProt P42336); experiment: Protein kinase inhibition; assay type: biochemical; conditions: tested at 3 μM
Experimental: as §5

[16] = target: PI3K CG (Homo sapiens, UniProt P48736); experiment: Protein kinase inhibition; assay type: biochemical; conditions: tested at 3 μM
Experimental: as §5

[17] = target: MAP2K2 (MEK2) (Homo sapiens, UniProt P36507); experiment: Protein kinase inhibition; assay type: biochemical; conditions: tested at 3 μM
Experimental: as §5

[18] = target: FRAP1 (Homo sapiens, UniProt P42345); experiment: Protein kinase inhibition; assay type: biochemical; conditions: tested at 3 μM
Experimental: as §5

[19] = target: PI3K CD (Homo sapiens, UniProt O00329); experiment: Protein kinase inhibition; assay type: biochemical; conditions: tested at 3 μM
Experimental: as §5

[20] = target: PI3K C2B (Homo sapiens, UniProt O00750); experiment: Protein kinase inhibition; assay type: biochemical; conditions: tested at 3 μM
Experimental: as §5

[21] = target: P13K C3 (Homo sapiens, UniProt Q8NEB9); experiment: Protein kinase inhibition; assay type: biochemical; conditions: tested at 3 μM
Experimental: as §5

[22] = target: EGF-R (L858R mutation) (Homo sapiens, UniProt P00533, L858R); experiment: Protein kinase inhibition; assay type: biochemical; conditions: tested at 3 μM
Experimental: as §5

[23] = target: AKT3 (Homo sapiens, UniProt Q9Y243); experiment: Protein kinase inhibition; assay type: biochemical; conditions: tested at 3 μM
Experimental: as §5

[24] = target: MAP2K1 (MEK1) (Homo sapiens, UniProt Q02750); experiment: Protein kinase inhibition; assay type: biochemical; conditions: tested at 3 μM
Experimental: as §5

[25] = target: MAPK3 (ERK1) (Homo sapiens, UniProt P27361); experiment: Protein kinase inhibition; assay type: biochemical; conditions: tested at 3 μM
Experimental: as §5

[26] = target: GSK3B (Homo sapiens, UniProt P49841); experiment: Protein kinase inhibition; assay type: biochemical; conditions: tested at 3 μM
Experimental: as §5

[27] = target: PI3K CB (Homo sapiens, UniProt P42338); experiment: Protein kinase inhibition; assay type: biochemical; conditions: tested at 3 μM
Experimental: as §5

[28] = target: AKT1 (Homo sapiens, UniProt P31749); experiment: Protein kinase inhibition; assay type: biochemical; conditions: tested at 3 μM
Experimental: as §5

P13K C3, sequence (Q8NEB9 whole entry, stated change not applied): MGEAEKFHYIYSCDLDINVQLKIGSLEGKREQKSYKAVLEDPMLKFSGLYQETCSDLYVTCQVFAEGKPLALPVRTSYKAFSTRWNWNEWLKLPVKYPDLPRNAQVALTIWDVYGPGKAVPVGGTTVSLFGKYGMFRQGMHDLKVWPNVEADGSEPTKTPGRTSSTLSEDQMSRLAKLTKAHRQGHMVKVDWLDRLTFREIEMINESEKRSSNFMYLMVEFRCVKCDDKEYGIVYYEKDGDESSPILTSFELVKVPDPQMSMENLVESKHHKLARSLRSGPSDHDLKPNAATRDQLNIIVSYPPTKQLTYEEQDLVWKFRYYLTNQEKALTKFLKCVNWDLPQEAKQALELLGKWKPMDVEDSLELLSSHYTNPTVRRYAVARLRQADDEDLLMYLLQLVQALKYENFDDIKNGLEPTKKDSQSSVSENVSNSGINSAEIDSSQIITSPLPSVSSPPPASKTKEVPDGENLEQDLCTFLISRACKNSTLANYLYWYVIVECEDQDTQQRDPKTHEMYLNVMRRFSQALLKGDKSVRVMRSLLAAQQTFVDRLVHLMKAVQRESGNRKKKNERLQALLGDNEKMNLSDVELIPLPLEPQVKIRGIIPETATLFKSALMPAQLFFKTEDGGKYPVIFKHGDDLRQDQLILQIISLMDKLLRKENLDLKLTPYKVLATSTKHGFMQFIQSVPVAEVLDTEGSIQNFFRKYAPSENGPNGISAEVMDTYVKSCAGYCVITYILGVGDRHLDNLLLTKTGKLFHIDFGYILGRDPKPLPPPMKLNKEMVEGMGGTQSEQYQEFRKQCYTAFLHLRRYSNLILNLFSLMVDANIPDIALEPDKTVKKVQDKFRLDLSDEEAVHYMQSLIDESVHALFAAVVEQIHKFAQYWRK
EGF-R, sequence (P00533 25-1210, species assumed): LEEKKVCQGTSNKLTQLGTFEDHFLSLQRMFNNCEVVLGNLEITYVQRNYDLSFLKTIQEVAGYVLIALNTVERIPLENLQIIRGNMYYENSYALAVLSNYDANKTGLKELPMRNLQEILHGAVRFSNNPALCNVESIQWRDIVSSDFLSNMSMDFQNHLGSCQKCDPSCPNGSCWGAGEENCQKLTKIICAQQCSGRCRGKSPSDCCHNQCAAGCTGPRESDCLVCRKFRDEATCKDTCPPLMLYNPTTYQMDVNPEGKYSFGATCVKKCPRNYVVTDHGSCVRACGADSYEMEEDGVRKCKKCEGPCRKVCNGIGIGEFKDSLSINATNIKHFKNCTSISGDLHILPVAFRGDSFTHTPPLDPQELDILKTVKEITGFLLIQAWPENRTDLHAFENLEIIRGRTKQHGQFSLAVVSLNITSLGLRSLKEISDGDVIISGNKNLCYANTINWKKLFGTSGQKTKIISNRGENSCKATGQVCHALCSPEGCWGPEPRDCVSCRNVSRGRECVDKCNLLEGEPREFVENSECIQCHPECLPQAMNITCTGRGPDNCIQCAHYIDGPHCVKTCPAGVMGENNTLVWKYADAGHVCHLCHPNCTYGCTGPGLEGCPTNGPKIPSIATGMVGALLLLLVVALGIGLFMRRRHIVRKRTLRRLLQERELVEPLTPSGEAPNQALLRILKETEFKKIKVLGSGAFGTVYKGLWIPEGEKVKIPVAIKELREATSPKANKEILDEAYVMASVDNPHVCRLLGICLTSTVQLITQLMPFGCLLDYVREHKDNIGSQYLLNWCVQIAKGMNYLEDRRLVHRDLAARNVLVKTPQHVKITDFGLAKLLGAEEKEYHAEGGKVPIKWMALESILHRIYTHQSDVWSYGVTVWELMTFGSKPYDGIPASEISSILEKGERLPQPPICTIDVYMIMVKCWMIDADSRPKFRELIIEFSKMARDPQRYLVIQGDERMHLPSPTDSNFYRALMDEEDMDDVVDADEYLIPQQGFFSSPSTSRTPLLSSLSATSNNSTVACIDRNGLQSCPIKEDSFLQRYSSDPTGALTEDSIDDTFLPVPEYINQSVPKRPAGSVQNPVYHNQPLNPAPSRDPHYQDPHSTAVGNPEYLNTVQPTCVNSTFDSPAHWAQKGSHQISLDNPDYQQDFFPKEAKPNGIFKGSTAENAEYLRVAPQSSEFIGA
AKT1, sequence (P31749 whole entry, species assumed): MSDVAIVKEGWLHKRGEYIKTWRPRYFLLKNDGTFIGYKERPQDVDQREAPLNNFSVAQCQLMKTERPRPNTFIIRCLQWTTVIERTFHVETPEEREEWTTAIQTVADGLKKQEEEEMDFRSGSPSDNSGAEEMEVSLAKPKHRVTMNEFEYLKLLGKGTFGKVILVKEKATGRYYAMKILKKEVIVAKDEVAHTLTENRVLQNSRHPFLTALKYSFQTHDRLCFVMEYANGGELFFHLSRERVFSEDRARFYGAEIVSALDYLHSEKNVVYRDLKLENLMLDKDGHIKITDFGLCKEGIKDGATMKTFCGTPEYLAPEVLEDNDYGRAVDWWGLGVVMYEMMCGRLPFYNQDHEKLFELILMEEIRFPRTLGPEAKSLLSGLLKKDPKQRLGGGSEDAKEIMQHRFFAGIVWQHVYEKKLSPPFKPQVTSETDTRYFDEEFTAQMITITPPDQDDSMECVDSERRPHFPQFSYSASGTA
PI3K CB, sequence (P42338 whole entry): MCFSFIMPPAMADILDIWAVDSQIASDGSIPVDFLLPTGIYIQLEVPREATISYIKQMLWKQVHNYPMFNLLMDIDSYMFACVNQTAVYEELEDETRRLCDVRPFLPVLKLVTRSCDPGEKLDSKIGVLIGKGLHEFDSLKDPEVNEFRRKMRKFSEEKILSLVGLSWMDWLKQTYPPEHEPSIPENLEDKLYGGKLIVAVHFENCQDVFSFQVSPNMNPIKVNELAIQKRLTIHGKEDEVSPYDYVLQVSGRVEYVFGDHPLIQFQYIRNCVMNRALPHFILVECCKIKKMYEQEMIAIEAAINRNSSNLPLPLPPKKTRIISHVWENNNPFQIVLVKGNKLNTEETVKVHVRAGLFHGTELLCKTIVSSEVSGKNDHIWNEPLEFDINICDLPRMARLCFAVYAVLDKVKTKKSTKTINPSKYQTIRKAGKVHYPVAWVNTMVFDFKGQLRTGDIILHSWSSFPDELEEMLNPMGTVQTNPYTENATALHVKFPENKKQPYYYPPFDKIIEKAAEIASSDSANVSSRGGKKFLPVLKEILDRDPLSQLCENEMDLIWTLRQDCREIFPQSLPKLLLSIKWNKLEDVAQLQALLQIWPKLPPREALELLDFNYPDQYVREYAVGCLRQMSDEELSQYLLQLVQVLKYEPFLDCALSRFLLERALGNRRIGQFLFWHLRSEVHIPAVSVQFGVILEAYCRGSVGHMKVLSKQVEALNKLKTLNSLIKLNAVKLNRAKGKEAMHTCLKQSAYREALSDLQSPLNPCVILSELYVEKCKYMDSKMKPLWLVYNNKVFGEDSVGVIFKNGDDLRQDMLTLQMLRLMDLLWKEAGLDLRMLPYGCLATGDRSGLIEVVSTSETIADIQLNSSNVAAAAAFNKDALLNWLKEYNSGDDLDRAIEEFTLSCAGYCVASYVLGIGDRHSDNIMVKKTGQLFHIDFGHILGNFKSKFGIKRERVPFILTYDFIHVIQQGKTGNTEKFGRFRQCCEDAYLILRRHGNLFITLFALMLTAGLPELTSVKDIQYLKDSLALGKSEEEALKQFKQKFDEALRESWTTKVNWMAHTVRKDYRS
PI3K CB, sequence (P27986 whole entry partner): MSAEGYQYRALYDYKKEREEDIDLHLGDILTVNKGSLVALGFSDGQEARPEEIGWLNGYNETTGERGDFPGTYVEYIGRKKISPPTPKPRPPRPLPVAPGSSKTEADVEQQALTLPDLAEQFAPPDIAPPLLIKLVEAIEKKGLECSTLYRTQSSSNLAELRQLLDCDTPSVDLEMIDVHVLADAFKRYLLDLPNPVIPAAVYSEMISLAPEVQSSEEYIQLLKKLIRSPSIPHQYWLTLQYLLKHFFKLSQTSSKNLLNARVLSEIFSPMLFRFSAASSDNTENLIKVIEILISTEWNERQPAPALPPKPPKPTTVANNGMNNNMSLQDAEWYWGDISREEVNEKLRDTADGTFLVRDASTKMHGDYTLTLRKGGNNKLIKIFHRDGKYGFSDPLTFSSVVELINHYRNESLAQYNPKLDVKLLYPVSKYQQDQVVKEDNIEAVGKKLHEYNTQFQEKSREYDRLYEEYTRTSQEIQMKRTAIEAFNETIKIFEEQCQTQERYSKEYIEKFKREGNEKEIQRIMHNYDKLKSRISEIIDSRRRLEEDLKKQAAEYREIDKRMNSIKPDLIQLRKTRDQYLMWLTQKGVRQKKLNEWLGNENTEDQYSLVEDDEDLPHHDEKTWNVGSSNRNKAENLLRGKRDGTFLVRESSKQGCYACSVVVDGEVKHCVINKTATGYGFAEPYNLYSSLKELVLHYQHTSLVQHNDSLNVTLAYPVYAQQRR
AKT2, sequence (P31751 whole entry, species assumed): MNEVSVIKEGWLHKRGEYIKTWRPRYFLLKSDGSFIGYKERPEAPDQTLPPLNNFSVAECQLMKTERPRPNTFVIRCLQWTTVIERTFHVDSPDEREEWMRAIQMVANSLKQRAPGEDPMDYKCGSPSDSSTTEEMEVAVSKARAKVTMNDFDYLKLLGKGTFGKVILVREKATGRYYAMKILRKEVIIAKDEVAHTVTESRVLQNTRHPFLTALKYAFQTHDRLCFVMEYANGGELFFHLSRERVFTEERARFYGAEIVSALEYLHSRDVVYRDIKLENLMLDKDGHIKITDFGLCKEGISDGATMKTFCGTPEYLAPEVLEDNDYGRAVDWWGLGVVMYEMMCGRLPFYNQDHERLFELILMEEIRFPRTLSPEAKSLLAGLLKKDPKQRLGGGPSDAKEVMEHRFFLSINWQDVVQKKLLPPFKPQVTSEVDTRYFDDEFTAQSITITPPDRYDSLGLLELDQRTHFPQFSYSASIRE

Kinase inhibitory activity, PDK1 [7]: No kinase inhibitory activity | Kinase inhibitory activity, PI3K C2A [8]: No kinase inhibitory activity | Kinase inhibitory activity, AKT2 [9]: No kinase inhibitory activity | Kinase inhibitory activity, EGF-R [10]: No kinase inhibitory activity | Kinase inhibitory activity, BRAF [11]: No kinase inhibitory activity | Kinase inhibitory activity, MAPK1 (ERK2) [12]: No kinase inhibitory activity | Kinase inhibitory activity, BRAF V599E [13]: No kinase inhibitory activity | Kinase inhibitory activity, RAF1 [14]: No kinase inhibitory activity | Kinase inhibitory activity, PI3K 3A [15]: No kinase inhibitory activity | Kinase inhibitory activity, PI3K CG [16]: No kinase inhibitory activity | Kinase inhibitory activity, MAP2K2 (MEK2) [17]: No kinase inhibitory activity | Kinase inhibitory activity, FRAP1 [18]: No kinase inhibitory activity | Kinase inhibitory activity, PI3K CD [19]: No kinase inhibitory activity | Kinase inhibitory activity, PI3K C2B [20]: No kinase inhibitory activity | Kinase inhibitory activity, P13K C3 [21]: No kinase inhibitory activity | Kinase inhibitory activity, EGF-R (L858R mutation) [22]: No kinase inhibitory activity | Kinase inhibitory activity, AKT3 [23]: No kinase inhibitory activity | Kinase inhibitory activity, MAP2K1 (MEK1) [24]: No kinase inhibitory activity | Kinase inhibitory activity, MAPK3 (ERK1) [25]: No kinase inhibitory activity | Kinase inhibitory activity, GSK3B [26]: No kinase inhibitory activity | Kinase inhibitory activity, PI3K CB [27]: No kinase inhibitory activity | Kinase inhibitory activity, AKT1 [28]: No kinase inhibitory activity
SMILES: Cc1nc2c(-c3ccccc3)c(C)nn2c(NCc2ccccn2)c1Cc1ccccc1 [Structure 1]
IC50 ([1]; SW-620, Cell Titer Glo 2.0, read-out: IC50, cytotoxicity on SW620 human cancer cells (FIG. 1 legend)): 3.9 µM | IC50 ([1]; SW-620, CellTiter-Glo 2.0, read-out: IC50 in the SW620 cells): 3.9 µM | Effect on phosphorylated AKT [2]: decreased; also recorded: suppressed | Effect on non-phosphorylated ERK [3]: no effect; also recorded: without affecting | Effect on phosphorylated ERK [4]: decreased; also recorded: suppressed | Effect on non-phosphorylated AKT [5]: no effect; also recorded: without affecting | Flies with Reversed Phenotype ([6]; Experiment 1, 20 μM in fly food): 75% | Flies with phenotype reversals relative to positive control trametinib ([6]; Experiment 1, 75% versus 29%): over 2.5 fold | Flies with Reversed Phenotype ([6]; Experiment 2, 20 μM in fly food): 58% | Ability to reverse the crinkled wing phenotype in library screen ([6]; screen of over 16,000 ChemDiv compounds, ~100 μM in fly food, 12 days): reliably reversed the phenotype

SMILES: CC(=O)Nc1cccc(-n2c(=O)n(C3CC3)c(=O)c3c(Nc4ccc(I)cc4F)n(C)c(=O)c(C)c32)c1 [Trametinib]
Reversal of the crimped/crinkled phenotype, share of the flies (positive control, general) ([6]; 40 μL of 50 μM DMSO solution in fly food, 12 days): 50-75% | Flies with Reversed Phenotype ([6]; Experiment 1, 0.5 μM in fly food): 29% | Flies with Reversed Phenotype ([6]; Experiment 2, 0.5 μM in fly food): 63% and 64% | Flies with Reversed Phenotype ([6]; Experiment 2, 0.5 μM in fly food, listed as trametinib): 63% and 64%

From patent US11390626B2, “Pyrazolopyrimidine modulators of RAS GTPase” (Tosk, Inc., priority 2019, dated 2022)
